The values below are quoted from earlier work in patent EP2703009A1, “Combination treatments involving antibodies to human PCSK9” (SANOFI, priority 2012, dated 2014).

The conditions of series [1]: after oral administration; cited from earlier work.
The conditions of series [2]: in vivo; cited from earlier work.
The test system of series [3] is patients with genotype-confirmed hoFH. Particulars: ezetimibe 10 mg/day added to the maximal dose of statins; cited from earlier work.
Series [4] concerns PCSK9. Particulars: stated as known for statins and ezetimibe; limited or no information on ezetimibe alone; cited from earlier work.

On to `O=C(O)[C@H]1O[C@@H](Oc2ccc([C@@H]3[C@@H](CC[C@H](O)c4ccc(F)cc4)C(=O)N3c3ccc(F)cc3)cc2)[C@H](O)[C@@H](O)[C@@H]1O` [ezetimibe-glucuronide], for which the “half-life (elimination from plasma)” value in series [1] is listed as “approximately 22 hours”. `CC(C)(Oc1ccc(C(=O)c2ccc(Cl)cc2)cc1)C(=O)O` [Fenofibric acid]: the “half-life (elimination from plasma)” value in series [1] is 20 h. Take `CC(C)OC(=O)C(C)(C)Oc1ccc(C(=O)c2ccc(Cl)cc2)cc1` [fenofibrate]: in series [2], the “Frequent adverse events reported” value is “abdominal pain, nausea, vomiting, diarrhea, flatulence, increase ALT/AST”; the “Less frequently reported adverse events” value is “pancreatitis, thromboembolism (pulmonary embolism, deep venous thrombosis), biliary lithiasis, rash, pruritus, urticaria, photosensitivity reaction, increase creatinine and increase urea”. Regarding `O=C1[C@H](CC[C@H](O)c2ccc(F)cc2)[C@@H](c2ccc(O)cc2)N1c1ccc(F)cc1` [ezetimibe], in series [2], the “Frequent adverse events reported” value is “abdominal pain, diarrhea, flatulence, fatigue, increase ALT/AST, headache and myalgia”. In series [3], the “total reduction of LDL-C levels” value is 27%. For the same compound, in series [4], the PCSK9 expression entry was “upregulated”.
